Measurements from patent publication US11530197B2, “Analogs for the treatment of disease” (Insilico Medicine IP Limited, priority 2021, dated 2022).

Legend:
[1] = Metabolic stability in human liver microsomes; assay type: in vitro ADME; details: LM Clint; 1 μM test compound, 0.5 mg protein/mL microsome, 37° C., up to 60 min;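 note: NADPH-supplemented human liver microsomes sampled at 0, 5, 10, 20, 30 and 60 min, parent compound quantified by LC-MS/MS, intrinsic clearance from first-order decay, no-cofactor incubation as control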
Protocol: Test Compound an Control Working Solution Preparation: Working solution: 5 μL of compound and control stock solution (10 mM in dimethyl sulfoxide (DMSO)) were diluted with 495 µL of acetonitrile (ACN) (intermediate solution concentration: 100 μM, 99% ACN).
Preparation Procedure: The appropriate amount of NADPH powder was weighed and diluted into a 10 mM MgCl2 solution (working solution concentration: 10 unit/mL; final concentration in reaction system: 1 unit/mL).
Preparation Procedure: The appropriate concentrations of microsome working solutions were prepared in 100 mM potassium phosphate buffer.
Stop Solution Preparation: Cold (4° C.) acetonitrile (ACN) containing 200 ng/mL tolbutamide and 200 ng/mL labetalol as internal standards (IS) was used as the stop solution.
Dilute liver microsomes to 0.56 mg/mL in 100 mM phosphate buffer.
Transfer 445 μL microsome working solutions (0.56 mg/mL) into pre-warmed ‘Incubation’ plates T60 and NCF60, Then pre-incubate ‘Incubation’ plates T60 and NCF60 for 10 min at 37° C. with constant shaking. Transfer 54 μL liver microsomes to blank plate, then add 6 μL NAPDH cofactor to blank plate, and then add 180 μL quenching solution to blank plate.
2.5.4 Add 5 μL compound working solution (100 μM) into ‘incubation’ plates (T60 and NCF60) containing microsomes and mix 3 times thoroughly.
For the NCF60 plate, add 50 μL of buffer and mix 3 times thoroughly. Start timing; plate will be incubated at 37° C. for 60 min while shaking.
For the T60 plate, mix 3 times thoroughly, and immediately remove 54 μL mixture for the 0-min time point to ‘Quenching’ plate. Then add 44 μL NAPDH cofactor to incubation plate (T60). Start timing; plate will be incubated at 37° C. for 60 min while shaking.
At 5, 10, 20, 30, and 60 min, add 180 μL quenching solution to ‘Quenching’ plates, mix once, and serially transfer 60 μL sample from T60 plate per time point to ‘Quenching’ plates.
For NCF60: mix once, and transfer 60 μL sample from the NCF60 incubation to ‘Quenching’ plate containing quenching solution at the 60-min time point.
All sampling plates are shaken for 10 min, then centrifuged at 4000 rpm for 20 minutes at 4° C.
Transfer 80 μL supernatant into 240 μL HPLC water, and mix by plate shaker for 10 min.
Each bioanalysis plate was sealed and shaken for 10 minutes prior to LC-MS/MS analysis.
The equation of first order kinetics was used to calculate T½ and Intrinsic clearance (CLint mic) in (L/min/mg).

[2] = target: TNIK(h) (Homo sapiens (Human), UniProt Q9UKE5); assay: TNIK Human STE Kinase Enzymatic Radiometric Assay; assay type: biochemical; details: ATP 70 μM; 40 min at room temperature; read-out: TNIK (IC50);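 note: remaining kinase activity relative to DMSO control, compound added without preincubation, reaction started with ATP, IC50 from variable-slope sigmoidal dose-response fit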
Protocol: (§1) The reaction is initiated by the addition of the Mg/ATP mix. After incubation for 40 minutes at room temperature, the reaction is stopped by the addition of phosphoric acid to a concentration of 0.5%.
INCUBATION: 40 min at Room temperature
COMPOUND DILUTION SCHEME: All compounds supplied were prepared to a working stock of 50× final assay concentration in 100% DMSO. Where appropriate, more concentrated stocks were diluted manually to 50× using 100% DMSO. Compounds supplied as powders were reconstituted to a 10 mM stock in 100% DMSO before further dilution to 50×. ASSAY PROCEDURE: The required volume of the 50× stock of test compound was added to the assay before a reaction mix containing the enzyme and substrate was added. The reaction was initiated by the addition of ATP at the selected concentration. There was no pre-incubation of the compound with the enzyme/substrate mix prior to ATP addition. […] Results are expressed as kinase activity remaining, as a percentage of the DMSO control. This is calculated using the following formula:
(§2) For IC50 determinations, data are analyzed using XLFit version 5.3 (ID Business Solutions). Sigmoidal dose-response (variable slope) curves are fit based on the mean result for each test concentration using non-linear regression analysis. Where the top and/or bottom of the curve fall >10% out with 100 and 0, respectively, either or both of these limits may be constrained at 100 and 0, provided that the QC criterion on R2 is met.

[3] = target: MAP4K4 (h) (Homo sapiens (Human), UniProt O95819); assay: MAP4K4 Human STE Kinase Enzymatic Radiometric Assay; assay type: biochemical; details: ATP 200 μM; 40 min at room temperature;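 note: kinase activity remaining relative to the DMSO control, IC50 derived from sigmoidal variable-slope curve fits, no preincubation of compound with enzyme before ATP start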
Chain of MAP4K4 (h) (O95819 whole entry): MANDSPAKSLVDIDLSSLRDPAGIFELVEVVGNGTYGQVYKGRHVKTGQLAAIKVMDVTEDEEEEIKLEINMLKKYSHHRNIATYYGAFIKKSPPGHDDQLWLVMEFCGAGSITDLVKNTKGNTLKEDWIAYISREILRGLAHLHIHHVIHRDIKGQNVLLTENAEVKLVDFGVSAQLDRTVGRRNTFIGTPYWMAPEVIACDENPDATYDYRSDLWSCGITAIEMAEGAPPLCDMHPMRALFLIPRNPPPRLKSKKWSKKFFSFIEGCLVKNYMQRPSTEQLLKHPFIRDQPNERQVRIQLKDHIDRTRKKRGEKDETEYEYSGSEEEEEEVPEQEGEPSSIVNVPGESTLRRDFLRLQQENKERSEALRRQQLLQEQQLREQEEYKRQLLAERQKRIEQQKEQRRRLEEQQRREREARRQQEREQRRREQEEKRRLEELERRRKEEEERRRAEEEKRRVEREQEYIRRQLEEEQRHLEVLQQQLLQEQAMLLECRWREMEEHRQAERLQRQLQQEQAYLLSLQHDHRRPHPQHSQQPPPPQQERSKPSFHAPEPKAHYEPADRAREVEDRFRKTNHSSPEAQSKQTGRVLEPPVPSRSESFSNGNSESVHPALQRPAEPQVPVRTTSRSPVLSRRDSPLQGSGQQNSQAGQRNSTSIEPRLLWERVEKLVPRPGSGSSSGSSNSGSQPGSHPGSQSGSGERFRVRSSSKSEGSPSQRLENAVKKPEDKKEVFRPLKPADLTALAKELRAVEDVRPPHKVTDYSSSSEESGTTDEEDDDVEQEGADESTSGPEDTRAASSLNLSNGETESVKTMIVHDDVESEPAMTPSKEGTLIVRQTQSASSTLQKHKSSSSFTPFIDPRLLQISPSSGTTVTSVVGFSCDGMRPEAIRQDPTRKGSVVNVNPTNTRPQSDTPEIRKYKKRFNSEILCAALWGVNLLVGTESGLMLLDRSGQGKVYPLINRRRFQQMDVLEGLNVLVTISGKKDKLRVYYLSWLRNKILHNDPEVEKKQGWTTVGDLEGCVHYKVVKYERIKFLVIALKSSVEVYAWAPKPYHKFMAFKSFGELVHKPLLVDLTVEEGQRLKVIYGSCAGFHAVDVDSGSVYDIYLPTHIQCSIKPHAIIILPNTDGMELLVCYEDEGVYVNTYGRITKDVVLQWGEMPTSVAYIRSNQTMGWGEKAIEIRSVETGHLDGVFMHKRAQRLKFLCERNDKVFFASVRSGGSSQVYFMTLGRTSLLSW
Protocol: as §1
INCUBATION: 40 min at Room temperature
COMPOUND DILUTION SCHEME: All compounds supplied were prepared to a working stock of 50× final assay concentration in 100% DMSO. Where appropriate, more concentrated stocks were diluted manually to 50× using 100% DMSO. Compounds supplied as powders were reconstituted to a 10 mM stock in 100% DMSO before further dilution to 50×.
ASSAY PROCEDURE: The required volume of the 50× stock of test compound was added to the assay before a reaction mix containing the enzyme and substrate was added. The reaction was initiated by the addition of ATP at the selected concentration. There was no pre-incubation of the compound with the enzyme/substrate mix prior to ATP addition.
Results are expressed as kinase activity remaining, as a percentage of the DMSO control. This is calculated using the following formula: Mean of Sample Counts−Mean of Blank Counts/Mean of Control Counts
as §2

Chain of TNIK(h) (Q9UKE5 whole entry): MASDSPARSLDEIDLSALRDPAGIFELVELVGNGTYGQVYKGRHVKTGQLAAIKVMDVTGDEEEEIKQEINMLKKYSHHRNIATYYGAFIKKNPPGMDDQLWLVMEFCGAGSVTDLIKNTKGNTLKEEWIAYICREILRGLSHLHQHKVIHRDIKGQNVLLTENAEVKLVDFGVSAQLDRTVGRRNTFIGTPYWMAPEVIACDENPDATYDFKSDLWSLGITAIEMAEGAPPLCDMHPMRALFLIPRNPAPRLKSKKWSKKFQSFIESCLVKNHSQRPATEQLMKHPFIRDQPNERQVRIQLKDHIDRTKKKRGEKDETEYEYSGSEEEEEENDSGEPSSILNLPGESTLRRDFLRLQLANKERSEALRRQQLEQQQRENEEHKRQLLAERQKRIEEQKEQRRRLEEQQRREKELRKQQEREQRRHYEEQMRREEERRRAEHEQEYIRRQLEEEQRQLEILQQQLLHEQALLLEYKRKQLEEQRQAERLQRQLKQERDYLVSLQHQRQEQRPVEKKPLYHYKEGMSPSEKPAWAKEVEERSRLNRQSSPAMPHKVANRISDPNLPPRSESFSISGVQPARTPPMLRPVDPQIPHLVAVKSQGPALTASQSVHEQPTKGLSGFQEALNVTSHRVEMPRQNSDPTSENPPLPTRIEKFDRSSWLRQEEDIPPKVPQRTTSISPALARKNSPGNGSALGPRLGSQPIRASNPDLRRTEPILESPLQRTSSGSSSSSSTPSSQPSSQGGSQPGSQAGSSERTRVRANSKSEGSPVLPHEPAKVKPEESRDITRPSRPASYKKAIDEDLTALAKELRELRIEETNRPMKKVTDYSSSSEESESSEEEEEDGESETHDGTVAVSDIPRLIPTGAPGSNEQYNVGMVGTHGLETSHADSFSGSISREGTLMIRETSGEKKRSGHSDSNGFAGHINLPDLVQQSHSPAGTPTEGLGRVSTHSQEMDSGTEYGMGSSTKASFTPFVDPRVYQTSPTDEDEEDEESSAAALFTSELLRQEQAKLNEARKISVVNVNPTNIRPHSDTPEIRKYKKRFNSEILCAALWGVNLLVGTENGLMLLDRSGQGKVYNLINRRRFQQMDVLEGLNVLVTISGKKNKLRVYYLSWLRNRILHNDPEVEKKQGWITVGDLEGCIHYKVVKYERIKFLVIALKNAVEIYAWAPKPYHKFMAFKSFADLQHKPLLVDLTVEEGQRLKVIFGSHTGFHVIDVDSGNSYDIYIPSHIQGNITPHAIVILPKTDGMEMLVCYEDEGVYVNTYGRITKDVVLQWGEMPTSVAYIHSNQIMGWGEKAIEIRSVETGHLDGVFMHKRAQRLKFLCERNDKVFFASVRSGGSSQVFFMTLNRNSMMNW

SMILES | Human Liver Microsome (μM/min/mg) [1] | IC50 [2] | IC50 [3]
CC(C)n1cnc(-c2ccc(F)cc2)c1-c1nc(C(=O)Nc2ccc(N3CCN(S(N)(=O)=O)CC3)cc2)c[nH]1 [Compound 97, 5′-(4-fluorophenyl)-3′-isopropyl-N-(4-(4-sulfamoylpiperazin-1-yl)phenyl)-1H,3′H-[2,4′-biimidazole]-4-carboxamide] | + (>100 μM/min/mg as +) | 12 to 120 nM | 12 to 120 nM
CC(C)n1cnc(-c2ccc(F)cc2)c1-c1nc(C(=O)Nc2ccc(N3CCN(C(N)=O)CC3)cc2)c[nH]1 [Compound 99, N-(4-(4-carbamoylpiperazin-1-yl)phenyl)-5′-(4-fluorophenyl)-3′-isopropyl-1H,3′H-[2,4′-biimidazole]-4-carboxamide] | ++ (10-100 μM/min/mg as ++) | > 120 nM | > 120 nM
CC(C)n1cnc(-c2ccc(F)cc2)c1-c1nc(C(=O)Nc2ccc(CCC(=O)O)cc2)c[nH]1 [Compound 102, 3-(4-(5′-(4-fluorophenyl)-3′-isopropyl-1H,3′H-[2,4′-biimidazole]-4-carboxamido)phenyl)propanoic acid] | +++ (1-10 μM/min/mg as +++) | 12 to 120 nM | > 120 nM
CC(C)n1cnc(-c2ccc(F)cc2)c1-c1nc(C(=O)Nc2ccc(C(=O)O)cc2)c[nH]1 [Compound 113, 4-(5′-(4-fluorophenyl)-3′-isopropyl-1H,3′H-[2,4′-biimidazole]-4-carboxamido)benzoic acid] | +++ (1-10 μM/min/mg as +++) | 1 to 12 nM | > 120 nM
CN1CCN(c2ccc(NC(=O)c3c[nH]c(-c4c(-c5ccc(F)cc5)ncn4C)n3)cc2)CC1 [Compound 119, 5′-(4-fluorophenyl)-3′-methyl-N-(4-(4-methylpiperazin-1-yl)phenyl)-1H,3′H-[2,4′-biimidazole]-4-carboxamide] | ++ (10-100 μM/min/mg as ++) | > 120 nM | > 120 nM
CC(C)n1cnc(-c2ccc(F)cc2)c1-c1nc(C(=O)Nc2ccc(CCCCC(=O)O)cc2)c[nH]1 [Compound 132, 5-(4-(5′-(4-fluorophenyl)-3′-isopropyl-1H,3′H-[2,4′-biimidazole]-4-carboxamido)phenyl)pentanoic acid] | +++ (1-10 μM/min/mg as +++) | 12 to 120 nM | 12 to 120 nM
CC(C)n1cnc(-c2ccc(C(F)(F)F)cc2)c1-c1nc(C(=O)Nc2ccc(CCC(=O)O)cc2)c[nH]1 [Compound 133, 3-(4-(3′-isopropyl-5′-(4-(trifluoromethyl)phenyl)-1H,3′H-[2,4′-biimidazole]-4-carboxamido)phenyl)propanoic acid] | +++ (1-10 μM/min/mg as +++) | > 120 nM | > 120 nM
CC(C)n1cnc(-c2ccc(C(F)(F)F)cc2)c1-c1nc(C(=O)Nc2ccc(N3CCN(CCO)CC3)cc2)c[nH]1 [Compound 134] | ++ (10-100 μM/min/mg as ++) | > 120 nM | > 120 nM
CN1CCN(c2ccc(NC(=O)c3c[nH]c(-c4c(-c5ccc(F)cc5)ncn4CC(C)(C)C)n3)cc2)CC1 [Compound 135, 5′-(4-fluorophenyl)-N-(4-(4-methylpiperazin-1-yl)phenyl)-3′-neopentyl-1H,3′H-[2,4′-biimidazole]-4-carboxamide] | + (>100 μM/min/mg as +) | 12 to 120 nM | > 120 nM
CN1CCN(c2ccc(NC(=O)c3c[nH]c(-c4c(-c5ccc(F)cc5)ncn4[C@H]4CC[C@@H](O)CC4)n3)cc2)CC1 [Compound 172] | – | 12 to 120 nM | –
CN1CCN(c2ccc(NC(=O)c3c[nH]c(-c4ncn(C(F)F)c4-c4ccc(F)cc4)n3)cc2)CC1 [Compound 175] | – | 1 to 12 nM | –
CC(C)n1cnc(-c2ccc(F)cc2)c1-c1nc(C(=O)Nc2ccc(N3C[C@H]4CC[C@@H](C3)N4C)cc2)c[nH]1 [Compound 186, 5′-(4-fluorophenyl)-3′-isopropyl-N-(4-((1R,5S)-8-methyl-3,8-diazabicyclo[3.2.1]octan-3-yl)phenyl)-1H,3′H-[2,4′-biimidazole]-4-carboxamide] | – | 1 to 12 nM | 1 to 12 nM
